Reference: publication PMC12196476, “New Nitrogen-, Oxygen-, and Sulfur-Containing Heterocyclic Compounds as Anti-Colon Cancer Agents: Synthesis, Multitargeted Evaluations, Molecular Docking Simulations and ADMET Predictions” (Pharmaceuticals, 2025)

Assays:
[1] = biological target: recombinant human LDHA protein (Homo sapiens, UniProt P00338); assay: In vitro LDHA inhibitory assay (NADH consumption); assay type: biochemical
HCT-116 cells [2] = assay: Cell cycle assay (PI flow cytometry), HCT-116; assay type: cell-based, human; conditions: 30 µg/mL, 48 h, mean of n = 2 (Figure 1E); untreated control 47.37 ± 1.68%
Protocol: Cell proliferation depends on orderly progression through the phases of the cell cycle (G1−S−G2−M). Cytotoxic agents can impair the integrity of DNA, leading to checkpoint arrest at G1/S or G2/M, which subsequently blocks proliferation. To evaluate the impact of compound 3d on cell cycle distribution, colon carcinoma cells were treated with 30 µg/mL of 3d for 48 h, followed by DNA content analysis using flow cytometry. […] In contrast, in HCT-116 cells, 3d caused an accumulation in the G1 phase, reaching 60.17 ± 1.44% versus 47.37 ± 1.68% in untreated cells (Figure 1E). […]
(§1) medium served used as negative and positive controls, respectively. Percentages of viable cells […]
(§2) wells (final concentration of 100 μg/mL), compared to the negative control, and expressed as mean value (%) ± SD from two replicates. Graphing dose-response curves representing the compound […]
(§3) (HUVECs) at final concentration of 100 μg/mL . HUVECs were grown in Dulbecco’s Modified Eagle’s Medium supplemented with 10% FBS, 2 mM glutamine (Sigma Aldrich), 100 units/mL penicillin and […] streptomycin (Life Technologies; Paisley, UK).
(§4) S3.2.5. Cell cycle assay.
(§5) HCT-116 and LoVo cultures upon treatment with compound 3d. HCT-116 and LoVo carcinoma […]
(§6) μg/mL for 48 h. […] Then, cells […]
(§7) of stained cancerous cells were determined. […]
carcinoma cells treated with compound 3d was assessed using the TMRE Mitochondrial Membrane

LoVo cells = assay: Mitochondrial membrane potential (TMRE staining), LoVo; assay type: cell-based, human; conditions: 30 µg/mL, 48 h
Protocol: (§8) To assess mitochondrial integrity, TMRE staining was used to measure ΔΨm.
(§9) The mitochondrial transmembrane potential was measured using a tetramethylrhodamine, ethyl ester (TMRE) mitochondrial membrane potential assay kit. […]
as §1, §2, §3, §4, §5, §6
(§10) were fixed by mixing […] of 90% cold ethanol and stained with propidium iodide (PI) for 1 h at 37 °C. […]
as §7
(§11) carcinoma cells treated with compound 3d was assessed using the TMRE Mitochondrial Membrane […]
(§12) for TMRE staining. TMRE was excited using a 488 nm laser and detected in the FL2 channel at 575 […]
(§13) S3.2.9. Quantification of the Expression Levels of Bax, Bcl-2 and Caspase-3 Genes […]

HCT-116 cells [3] = assay: Mitochondrial membrane potential (TMRE staining), HCT-116; assay type: cell-based, human; conditions: 30 µg/mL, 48 h
Protocol: as §8, §9, §1, §2, §3, §4, §5, §6, §10, §7, §11, §12, §13

inhibition at 100 µg/mL ([1]; 100 µg/mL, three replicates, read-out: Mean Inhibition Percent ± SD, LDHA): 85.9 ± 2.97% | IC50 ([1]; three independent experiments, read-out: Mean IC50 µM ± SD, LDHA): 149 ± 7.93 µM
SMILES: COc1cc(/C=N/c2ncnc3sc4c(c23)CCCC4)cc(OC)c1OC [Compound 3d, (E)-N-(5,6,7,8-Tetrahydrobenzo[4,5]thieno[2,3-d]pyrimidin-4-yl)-1-(3,4,5-trimethoxyphenyl)methanimine]
% of Cell population, HCT-116: %G1 (HCT-116 cells [2]): 60.17 ± 1.44% | Reduction of mitochondrial membrane potential (ΔΨm), LoVo cells (LoVo cells): 60.23 ± 1.87% | Reduction of mitochondrial membrane potential (ΔΨm), HCT-116 cells (HCT-116 cells [3]): 43.47 ± 0.81%
